The values below come from patent US11040957B2, “Heteroaromatic compounds useful for the treatment of proliferative diseases” (Syros Pharmaceuticals, Inc., priority 2013, dated 2021).

For orientation: inhibition means the relative decrease from the control value, in per cent.

The structures appear in SMILES notation.

One assay addresses T1, CDK7 (Homo sapiens, UniProt P50613).
T1 construct: purchased Life Technologies (Grand Island, N.Y.), ADAPTA kinase assay service
The experiment in a line: ADAPTA kinase assay, CDK7 (Life Technologies). Conditions: co-factors cyclin H and MNAT1; 10 μM down to 0.514 nM, 3-fold serial dilutions; read-out: CDK7 calculated IC50. It counts as biochemical.

The target of the next assay is T2, JNK1 (Homo sapiens, UniProt P45983).
T2 construct: purchased Life Technologies (Grand Island, N.Y.), Z'-LYTE kinase assay service
T2 sequence (P45983 whole entry): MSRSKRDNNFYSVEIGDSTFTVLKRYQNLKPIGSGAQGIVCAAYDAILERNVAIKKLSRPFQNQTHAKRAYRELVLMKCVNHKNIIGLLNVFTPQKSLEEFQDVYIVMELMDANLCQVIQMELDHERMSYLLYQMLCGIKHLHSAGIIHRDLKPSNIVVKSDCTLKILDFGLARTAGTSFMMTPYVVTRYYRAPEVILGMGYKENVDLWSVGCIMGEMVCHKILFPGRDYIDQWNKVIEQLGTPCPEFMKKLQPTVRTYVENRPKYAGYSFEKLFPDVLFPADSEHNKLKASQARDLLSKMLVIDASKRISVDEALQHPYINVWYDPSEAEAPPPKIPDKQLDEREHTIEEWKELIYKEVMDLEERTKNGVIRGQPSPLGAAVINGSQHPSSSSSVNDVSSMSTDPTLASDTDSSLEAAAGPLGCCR
Kind of assay: Z'-LYTE kinase assay, JNK1. It counts as biochemical. The procedure:
(§1) Compounds of the invention were assayed for activity against a variety of different kinases at Life Technologies™ (Grand Island, N.Y.) using their commercially available ADAPTA® (for CDK7, CDK9/cyclin T1, and IRAK1 kinases), Z′-LYTE® (for CDK1, CDK2, CDK5/p25, CDK5/p35, JNK1 and JNK2 kinases) and LANTHASCREEN EU® (for CDK8, CDK9/cyclin K and MLK3) kinase assay services. Test compounds were tested at 100 nM and 1 μM final concentrations in 1% DMSO against all kinases except CDK7. For CDK7, test compounds were tested at concentrations ranging from 10 μM down to 0.514 nM in a series of 3-fold serial dilutions. Details of these assays, including substrates used for each kinase, are available on the Life Technologies web site (www.lifetechnologies.com/). The results of the assay are shown below in Tables 2A and 2B. […] The co-factors used for each kinase in the assays were as follows CDK1—cyclin B; CDK2—cyclin A; CDK5—p25 or p35 as indicated; CDK7—cyclin H and MNAT1; CDK8—cyclin C; CDK9—cyclin K or cyclin T1 as indicated; IRAK1—Histone H3 (1-20) peptide; JNK1—none required; JNK2—none required; MLK3—none required.

A further assay has as its target T3, CDK9/cyclin K (Homo sapiens, UniProt P50750).
T3 construct: purchased Life Technologies (Grand Island, N.Y.), LANTHASCREEN EU kinase assay service
The experiment in a line: LANTHASCREEN EU kinase assay, CDK9/cyclin K. The settings on record: cyclin K co-factor. It is filed as binding. The procedure:
as §1
A general note: Time-resolved FRET reads energy transfer from a long-lived donor to a nearby acceptor.

The target in a further assay is T4, CDK2 (Homo sapiens, UniProt P24941).
T4 construct: purchased Life Technologies (Grand Island, N.Y.), Z'-LYTE kinase assay service
Kind of assay: Z'-LYTE kinase assay, CDK2. It counts as biochemical. The settings on record: cyclin A co-factor. How it is done: as §1

The target in the next assay is T5, CDK8 (Homo sapiens, UniProt P49336).
T5 construct: purchased Life Technologies (Grand Island, N.Y.), LA[…] kinase assay service
T5 sequence (P49336 whole entry): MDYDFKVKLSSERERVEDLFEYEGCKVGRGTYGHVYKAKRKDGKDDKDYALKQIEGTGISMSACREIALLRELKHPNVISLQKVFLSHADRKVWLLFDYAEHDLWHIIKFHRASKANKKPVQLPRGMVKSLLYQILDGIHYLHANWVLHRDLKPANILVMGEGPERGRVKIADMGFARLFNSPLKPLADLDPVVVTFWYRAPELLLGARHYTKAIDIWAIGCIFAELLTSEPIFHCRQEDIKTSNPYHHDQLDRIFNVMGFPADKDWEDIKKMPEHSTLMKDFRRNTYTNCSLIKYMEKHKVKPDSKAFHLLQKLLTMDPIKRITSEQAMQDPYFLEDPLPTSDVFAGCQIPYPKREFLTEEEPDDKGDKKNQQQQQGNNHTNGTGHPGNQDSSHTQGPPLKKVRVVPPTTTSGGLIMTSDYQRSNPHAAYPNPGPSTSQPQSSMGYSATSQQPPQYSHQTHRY
T5 sequence (P24863 whole entry partner): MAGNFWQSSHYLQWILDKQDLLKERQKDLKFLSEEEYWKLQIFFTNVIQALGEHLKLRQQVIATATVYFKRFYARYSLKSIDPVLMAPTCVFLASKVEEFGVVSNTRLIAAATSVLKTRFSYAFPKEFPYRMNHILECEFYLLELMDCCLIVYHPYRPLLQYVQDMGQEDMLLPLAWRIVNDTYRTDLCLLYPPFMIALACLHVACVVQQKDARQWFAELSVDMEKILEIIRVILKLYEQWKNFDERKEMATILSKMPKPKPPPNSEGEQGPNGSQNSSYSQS
Kind of assay: LANTHASCREEN EU kinase assay, CDK8. It is filed as binding. Conditions: cyclin C co-factor. How it is done: as §1

The next assay has as its target T6, CDK9/cyclin T1 (Homo sapiens, UniProt P50750).
T6 construct: purchased Life Technologies (Grand Island, N.Y.), ADAPTA kinase assay service
The experiment in a line: ADAPTA kinase assay, CDK9/cyclin T1. It counts as biochemical. The settings on record: cyclin T1 co-factor. How it is done:
as §1

The target of the next assay is T7, JNK2 (Homo sapiens, UniProt P45984).
T7 construct: purchased Life Technologies (Grand Island, N.Y.), Z'-LYTE kinase assay service
T7 sequence (P45984 whole entry): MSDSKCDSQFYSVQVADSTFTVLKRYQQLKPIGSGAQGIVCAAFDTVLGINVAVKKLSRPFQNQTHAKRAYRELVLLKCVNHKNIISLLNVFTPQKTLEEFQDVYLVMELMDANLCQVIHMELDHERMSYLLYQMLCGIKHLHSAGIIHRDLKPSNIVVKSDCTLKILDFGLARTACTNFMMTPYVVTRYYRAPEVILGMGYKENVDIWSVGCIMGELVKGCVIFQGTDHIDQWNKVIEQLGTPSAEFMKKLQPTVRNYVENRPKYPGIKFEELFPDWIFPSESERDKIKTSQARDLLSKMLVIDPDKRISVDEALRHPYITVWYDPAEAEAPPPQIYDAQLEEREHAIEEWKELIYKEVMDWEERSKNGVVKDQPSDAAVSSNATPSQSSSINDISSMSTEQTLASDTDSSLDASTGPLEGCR
Kind of assay: Z'-LYTE kinase assay, JNK2. It counts as biochemical. How it is done:
as §1

The next assay deals with T8, CDK5/p35 (Homo sapiens, UniProt Q00535).
T8 construct: purchased Life Technologies (Grand Island, N.Y.), Z'-LYTE kinase assay service
T8 sequence (Q00535 whole entry): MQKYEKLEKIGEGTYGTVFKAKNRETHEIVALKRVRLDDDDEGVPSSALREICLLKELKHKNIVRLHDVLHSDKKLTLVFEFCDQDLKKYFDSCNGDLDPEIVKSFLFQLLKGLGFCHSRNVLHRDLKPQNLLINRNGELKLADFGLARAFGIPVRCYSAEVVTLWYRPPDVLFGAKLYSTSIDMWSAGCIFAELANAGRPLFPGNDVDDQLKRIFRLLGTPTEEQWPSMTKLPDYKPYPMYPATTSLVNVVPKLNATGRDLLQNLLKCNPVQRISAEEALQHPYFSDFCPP
T8 sequence (Q15078 whole entry partner): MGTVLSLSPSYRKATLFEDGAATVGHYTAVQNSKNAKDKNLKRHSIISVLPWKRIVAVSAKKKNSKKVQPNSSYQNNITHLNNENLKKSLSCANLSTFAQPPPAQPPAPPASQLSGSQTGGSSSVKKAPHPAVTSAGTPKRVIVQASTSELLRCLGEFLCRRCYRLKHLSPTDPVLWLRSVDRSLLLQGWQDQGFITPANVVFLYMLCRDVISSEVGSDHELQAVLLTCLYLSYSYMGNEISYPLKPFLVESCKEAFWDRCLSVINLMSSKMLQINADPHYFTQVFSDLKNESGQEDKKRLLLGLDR
The experiment in a line: Z'-LYTE kinase assay, CDK5/p35. It is filed as biochemical. The settings on record: p35 co-factor. How it is done: as §1

Another assay concerns the target T9, CDK5/p25 (Homo sapiens, UniProt Q00535).
T9 construct: purchased Life Technologies (Grand Island, N.Y.), Z'-LYTE kinase assay service
The experiment in a line: Z'-LYTE kinase assay, CDK5/p25. It counts as biochemical. The procedure:
as §1

The next assay concerns Jurkat cells. The experiment in a line: Inhibition of proliferation of Jurkat cells ([…]-GLO, 72 hour). It is filed as cell-based. The settings on record: Homo sapiens. The procedure:
Representative compounds of the invention were tested at different concentrations (from 10 μM to […]; 0.5 log serial dilutions) for their ability to inhibit the proliferation of Jurkat cells. Cells were grown in RPMI 1640+10% FBS+1% Glutamax supplemented with FBS (Life Technologies) and 100 U.mL^−1 penicillin, 100 μg·mL^−1 streptomycin (Invitrogen) and cultured at 37° C. in a humidified chamber in the presence of 5% CO2. Proliferation assays were conducted over a 72 hour time period. […]-GLO® (Promega Corporation, Madison, Wis. USA) was used to assess the anti-proliferative effects of the compounds following manufacturer's directions and utilizing the reagents supplied with the […]-GLO® kit. In this table, “A” represents an IC50 of less than 500 nM; “B” an IC50 of between 500 nM and 5 μM; and “C” an IC50 of greater than 5 μM.

The target in a further assay is T10, CDK1 (Homo sapiens, UniProt P06493).
T10 construct: purchased Life Technologies (Grand Island, N.Y.), Z'-LYTE kinase assay service
T10 sequence (P06493 whole entry): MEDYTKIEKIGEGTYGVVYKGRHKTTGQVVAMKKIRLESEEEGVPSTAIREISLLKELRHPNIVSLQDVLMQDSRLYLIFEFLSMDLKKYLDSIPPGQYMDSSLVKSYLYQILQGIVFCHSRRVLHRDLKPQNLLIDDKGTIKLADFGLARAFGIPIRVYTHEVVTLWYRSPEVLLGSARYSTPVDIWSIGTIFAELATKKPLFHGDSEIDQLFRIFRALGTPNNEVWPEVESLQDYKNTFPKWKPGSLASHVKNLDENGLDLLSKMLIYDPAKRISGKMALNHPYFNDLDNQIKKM
T10 sequence (P14635 whole entry partner): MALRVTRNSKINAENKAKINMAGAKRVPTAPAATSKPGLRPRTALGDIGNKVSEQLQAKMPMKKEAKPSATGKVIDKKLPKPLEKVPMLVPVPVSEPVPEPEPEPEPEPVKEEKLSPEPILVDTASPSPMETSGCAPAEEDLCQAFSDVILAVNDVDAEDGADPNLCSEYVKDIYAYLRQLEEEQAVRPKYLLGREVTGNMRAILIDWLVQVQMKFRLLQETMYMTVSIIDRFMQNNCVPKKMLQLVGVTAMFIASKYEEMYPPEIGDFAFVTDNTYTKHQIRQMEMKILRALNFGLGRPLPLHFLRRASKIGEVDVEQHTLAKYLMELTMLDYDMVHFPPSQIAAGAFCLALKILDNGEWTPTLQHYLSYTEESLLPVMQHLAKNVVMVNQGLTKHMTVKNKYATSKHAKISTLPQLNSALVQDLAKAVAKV
The experiment in a line: Z'-LYTE kinase assay, CDK1. It is filed as biochemical. The settings on record: cyclin B co-factor. How it is done:
as §1

A further assay has as its target T11, MLK3 (Homo sapiens, UniProt Q16584).
T11 construct: purchased Life Technologies (Grand Island, N.Y.), LA[…] kinase assay service
The experiment in a line: LANTHASCREEN EU kinase assay, MLK3. It counts as binding. Conditions: calculated; read-out: C50 against MLK3. The procedure: as §1, with “Test compounds were tested at 100 nM and 1 μM final concentrations in 1% DMSO against all kinases except CDK7.” left out

T9 sequence (Q00535 whole entry): as the sequence (Q00535 whole entry) above
T9 sequence (Q15078 99-307 partner limits assumed): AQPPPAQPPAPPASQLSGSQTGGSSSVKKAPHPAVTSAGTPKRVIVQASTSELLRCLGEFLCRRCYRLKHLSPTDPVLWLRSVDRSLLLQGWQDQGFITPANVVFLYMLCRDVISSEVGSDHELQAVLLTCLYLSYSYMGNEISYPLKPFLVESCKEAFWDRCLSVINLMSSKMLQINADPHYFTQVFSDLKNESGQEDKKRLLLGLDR
T1 sequence (P50613 whole entry): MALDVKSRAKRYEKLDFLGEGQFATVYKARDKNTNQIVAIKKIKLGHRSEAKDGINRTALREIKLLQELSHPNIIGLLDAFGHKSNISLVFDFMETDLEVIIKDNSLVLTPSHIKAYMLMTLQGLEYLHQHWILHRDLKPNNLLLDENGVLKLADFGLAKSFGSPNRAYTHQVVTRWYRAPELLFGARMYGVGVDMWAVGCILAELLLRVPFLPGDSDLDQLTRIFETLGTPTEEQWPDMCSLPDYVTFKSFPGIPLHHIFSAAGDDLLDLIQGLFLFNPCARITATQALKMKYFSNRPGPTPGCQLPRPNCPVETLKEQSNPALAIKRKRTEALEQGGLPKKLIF
T1 sequence (P51946 whole entry partner): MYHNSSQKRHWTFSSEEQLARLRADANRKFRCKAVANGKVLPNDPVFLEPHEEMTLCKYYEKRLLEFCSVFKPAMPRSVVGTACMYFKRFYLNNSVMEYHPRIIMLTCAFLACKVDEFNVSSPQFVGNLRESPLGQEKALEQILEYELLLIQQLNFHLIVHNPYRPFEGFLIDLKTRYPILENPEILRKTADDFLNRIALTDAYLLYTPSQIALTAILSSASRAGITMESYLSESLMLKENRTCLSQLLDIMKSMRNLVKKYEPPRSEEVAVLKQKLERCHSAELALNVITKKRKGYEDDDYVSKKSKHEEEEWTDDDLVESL
T1 sequence (P51948 whole entry partner): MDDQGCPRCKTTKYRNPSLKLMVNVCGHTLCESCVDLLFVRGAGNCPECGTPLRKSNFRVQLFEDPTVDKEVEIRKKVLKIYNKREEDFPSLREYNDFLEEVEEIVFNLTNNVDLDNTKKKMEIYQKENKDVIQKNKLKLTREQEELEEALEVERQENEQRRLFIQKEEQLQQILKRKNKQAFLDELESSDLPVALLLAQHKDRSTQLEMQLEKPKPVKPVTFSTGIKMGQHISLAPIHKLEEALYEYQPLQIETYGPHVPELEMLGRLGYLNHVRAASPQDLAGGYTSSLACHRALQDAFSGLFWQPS
Procedure for CDK7: Test compounds were tested at 100 nM and 1 μM final concentrations in 1% DMSO against all kinases except CDK7. For CDK7, test compounds were tested at concentrations ranging from 10 μM down to 0.514 nM in a series of 3-fold serial dilutions. […] The co-factors used for each kinase in the assays were as follows CDK1—cyclin B; CDK2—cyclin A; CDK5—p25 or p35 as indicated; CDK7—cyclin H and MNAT1; CDK8—cyclin C; CDK9—cyclin K or cyclin T1 as indicated; IRAK1—Histone H3 (1-20) peptide; JNK1—none required; JNK2—none required; MLK3—none required.

Regarding `CN(C)C/C=C/C(=O)Nc1ccc(C(=O)N2CCCC(CNc3ncc(Cl)c(-c4c[nH]c5ccccc45)n3)C2)cc1` (stereo not drawn) [Compound 101, (E)-N-(4-(3-((5-chloro-4-(1H-indol-3-yl)pyrimidin-2-ylamino)methyl)piperidine-1-carbonyl)phenyl)-4-(dimethylamino)but-2-enamide], the IC50 was 100 to 1000 nM on CDK7 and 500 to 5000 nM in the assay with Jurkat cells. In addition, the inhibition at 0.1 µM against JNK1 (compound tested at 100 nM) was 50 to 70%; at CDK9/cyclin K (compound tested at 100 nM) it was under 50%; on CDK2 (compound tested at 100 nM), under 50%; on CDK8 (compound tested at 100 nM), under 50%; against CDK9/cyclin T1 (compound tested at 100 nM), under 50%; against JNK2 (compound tested at 100 nM) it was under 50%. For the same compound, the inhibition at 0.1 µM on CDK5/p35 (compound tested at 100 nM) is under 50%; at CDK5/p25 (compound tested at 100 nM, p25 co-factor) it was under 50%; against CDK1 (compound tested at 100 nM) it was under 50%. Moreover, the inhibition at 1 µM at JNK1 (compound tested at 1 μM) is over 70%; against CDK9/cyclin K (compound tested at 1 μM), under 50%; against CDK2 (compound tested at 1 μM), under 50%; on CDK8 (compound tested at 1 μM), under 50%; against CDK9/cyclin T1 (compound tested at 1 μM), under 50%; against JNK2 (compound tested at 1 μM) it was over 70%. The inhibition at 1 µM at CDK5/p35 (compound tested at 1 μM) was under 50%; at CDK5/p25 (compound tested at 1 μM, p25 co-factor), under 50%; against CDK1 (compound tested at 1 μM), under 50%.
In the case of `CN(C)C/C=C/C(=O)Nc1ccc(NC(=O)N2CCCC(Nc3ncc(Cl)c(-c4c[nH]c5ccccc45)n3)C2)cc1` (stereo not drawn) [Compound 102], on CDK7, the IC50 was 100 to 1000 nM.
As for `CN(C)C/C=C/C(=O)Nc1ccc(C(=O)N2CCCC(Nc3ncc(Cl)c(-c4c[nH]c5ccccc45)n3)C2)cc1` (stereo not drawn) [Compound 100, (E)-N-(4-(3-(5-chloro-4-(1H-indol-3-yl)pyrimidin-2-ylamino)piperidine-1-carbonyl)phenyl)-4-(dimethylamino)but-2-enamide], the IC50 on MLK3 was 3200 nM; on CDK5/p25 (p25 as co-factor, calculated, read-out: IC50 against CDK5), 3000 nM; in the assay with Jurkat cells, under 500 nM.
